Measurements reported in the NIST ThermoML archive (doi:10.1021/je901043q).

Assays:
[1] = xn = mol fraction of the nth substance listed; settings: 101 kPa, Liquid
[2] = 101 kPa, Liquid

CCCCCCCCO [octan-1-ol] + CCCCn1cc[n+](C)c1.N#C[S-]
[1], x2 = 0
Settings	mass density [kg/m3]	viscosity [mPa·s]
298.15 K	821.61	7.398
308.15 K	814.64	5.285
318.15 K	807.57	3.887
328.15 K	800.39	2.931
338.15 K	793.09	2.262
348.15 K	785.59	1.782

CCCCCCCCCCO [decan-1-ol]
[2]
Settings	mass density [kg/m3]	viscosity [mPa·s]
298.15 K	826.38	11.09
308.15 K	819.53	7.632
318.15 K	812.62	5.375
328.15 K	805.61	3.928
338.15 K	798.48	2.964
348.15 K	791.21	2.399

CCCCCCCO [heptan-1-ol] + CCCCn1cc[n+](C)c1.N#C[S-]
[1], x2 = 0
Settings	mass density [kg/m3]	viscosity [mPa·s]
298.15 K	818.81	5.851
308.15 K	811.73	4.26
318.15 K	804.55	3.184
328.15 K	797.22	2.434
338.15 K	789.75	1.9
348.15 K	782.08	1.512

CCCCCCCO [heptan-1-ol]
[2]
Settings	mass density [kg/m3]	viscosity [mPa·s]
298.15 K	818.81	5.851
308.15 K	811.73	4.26
318.15 K	804.55	3.184
328.15 K	797.22	2.434
338.15 K	789.75	1.9
348.15 K	782.08	1.512

CCCCCCCCCO [nonan-1-ol] + CCCCn1cc[n+](C)c1.N#C[S-]
[1], x2 = 0
Settings	mass density [kg/m3]	viscosity [mPa·s]
298.15 K	824.27	9.343
308.15 K	817.36	6.497
318.15 K	810.4	4.674
328.15 K	803.29	3.452
338.15 K	796.1	2.664
348.15 K	788.72	2.256

CCCCn1cc[n+](C)c1.N#C[S-] [1-butyl-3-methylimidazolium thiocyanate] + CCCCCCCCCO
[1]
Settings	mass density [kg/m3]	viscosity [mPa·s]
298.15 K, x1 = 0.1203	855.59	12.19
298.15 K, x1 = 0.2008	876.27	14.2
298.15 K, x1 = 0.2814	896.75	16.58
298.15 K, x1 = 0.3884	923.66	20.3
298.15 K, x1 = 0.5697	968.54	28.04
298.15 K, x1 = 0.6709	993.14	32.31
298.15 K, x1 = 0.7658	1015.88	–
298.15 K, x1 = 0.8618	1038.46	41.61
298.15 K, x1 = 0.9651	1062.11	46.89
298.15 K, x1 = 1	1069.79	51.74
308.15 K, x1 = 0.1203	848.88	8.664
308.15 K, x1 = 0.2008	869.7	10.14
308.15 K, x1 = 0.2814	890.24	11.81
308.15 K, x1 = 0.3884	917.27	14.3
308.15 K, x1 = 0.5697	962.4	19.35
308.15 K, x1 = 0.6709	987.05	22.23
308.15 K, x1 = 0.7658	1009.89	–
308.15 K, x1 = 0.8618	1032.53	27.8
308.15 K, x1 = 0.9651	1056.18	31.09
308.15 K, x1 = 1	1063.89	34.87
318.15 K, x1 = 0.1203	841.98	6.378
318.15 K, x1 = 0.2008	862.96	7.487
318.15 K, x1 = 0.2814	883.74	8.739
318.15 K, x1 = 0.3884	910.89	10.55
318.15 K, x1 = 0.5697	956.26	14.03
318.15 K, x1 = 0.6709	981.02	16.01
318.15 K, x1 = 0.7658	1003.93	–
318.15 K, x1 = 0.8618	1026.62	19.67
318.15 K, x1 = 0.9651	1050.33	21.81
318.15 K, x1 = 1	1058.02	24.19
328.15 K, x1 = 0.1203	835.4	4.782
328.15 K, x1 = 0.2008	856.36	5.662
328.15 K, x1 = 0.2814	877.25	6.629
328.15 K, x1 = 0.3884	904.56	8.032
328.15 K, x1 = 0.5697	950.15	10.61
328.15 K, x1 = 0.6709	975	12.04
328.15 K, x1 = 0.7658	998.03	–
328.15 K, x1 = 0.8618	1020.79	14.55
328.15 K, x1 = 0.9651	1044.5	16.06
328.15 K, x1 = 1	1052.19	16.7
338.15 K, x1 = 0.1203	828.56	3.695
338.15 K, x1 = 0.2008	849.77	4.408
338.15 K, x1 = 0.2814	870.73	5.139
338.15 K, x1 = 0.3884	898.2	6.237
338.15 K, x1 = 0.5697	944.06	8.26
338.15 K, x1 = 0.6709	969.04	9.33
338.15 K, x1 = 0.7658	992.15	–
338.15 K, x1 = 0.8618	1014.99	11.22
338.15 K, x1 = 0.9651	1038.73	12.32
338.15 K, x1 = 1	1046.43	12.73
348.15 K, x1 = 0.1203	821.64	2.971
348.15 K, x1 = 0.2008	843.14	3.521
348.15 K, x1 = 0.2814	864.18	4.102
348.15 K, x1 = 0.3884	891.86	4.962
348.15 K, x1 = 0.5697	937.98	6.512
348.15 K, x1 = 0.6709	963.09	7.404
348.15 K, x1 = 0.7658	986.31	–
348.15 K, x1 = 0.8618	1009.22	8.89
348.15 K, x1 = 0.9651	1032.99	9.74
348.15 K, x1 = 1	1040.7	9.98

CCCCCCCCCO [nonan-1-ol]
[2]
Settings	mass density [kg/m3]	viscosity [mPa·s]
298.15 K	824.27	9.343
308.15 K	817.36	6.497
318.15 K	810.4	4.674
328.15 K	803.29	3.452
338.15 K	796.1	2.664
348.15 K	788.72	2.256

CCCCn1cc[n+](C)c1.N#C[S-] [1-butyl-3-methylimidazolium thiocyanate]
[2]
Settings	mass density [kg/m3]	viscosity [mPa·s]
298.15 K	1069.79	51.74
308.15 K	1063.89	34.87
318.15 K	1058.02	24.19
328.15 K	1052.19	16.7
338.15 K	1046.43	12.73
348.15 K	1040.7	9.98

CCCCCCCCO [octan-1-ol]
[2]
Settings	mass density [kg/m3]	viscosity [mPa·s]
298.15 K	821.61	7.398
308.15 K	814.64	5.285
318.15 K	807.57	3.887
328.15 K	800.39	2.931
338.15 K	793.09	2.262
348.15 K	785.59	1.782

CCCCCCCCCCO [decan-1-ol] + CCCCn1cc[n+](C)c1.N#C[S-]
[1], x2 = 0
Settings	mass density [kg/m3]	viscosity [mPa·s]
298.15 K	826.38	11.09
308.15 K	819.53	7.632
318.15 K	812.62	5.375
328.15 K	805.61	3.928
338.15 K	798.48	2.964
348.15 K	791.21	2.399
